Measured values as given in ChEMBL document CHEMBL3885881, “DrugMatrix”.

Species: Rattus norvegicus
Assay: DrugMatrix - Regimen: Daily Repeat
Type: toxicity, organism-based, Sprague-Dawley
Design: regimen Daily Repeat, gender Male, age 6-8 weeks
Conditions: in vivo, sc, route subcutaneous, […]; for ABSOLUTE BASOPHIL / ABSOLUTE EOSINOPHIL / ABSOLUTE LYMPHOCYTE / ABSOLUTE MONOCYTE / ABSOLUTE SEGMENTED NEUTROPHIL / BASOPHIL / EOSINOPHIL / ERYTHROCYTE COUNT / HEMATOCRIT / HEMOGLOBIN / LEUKOCYTE COUNT / LYMPHOCYTE / MEAN CORPUSCULAR HEMOGLOBIN / MEAN CORPUSCULAR HEMOGLOBIN CONCENTRATION / MEAN CORPUSCULAR VOLUME / MONOCYTE / NEUTROPHIL / NUCLEATED RED BLOOD CELLS / PLATELET COUNT: tissue Blood; for ALANINE AMINOTRANSFERASE / ALBUMIN / ALKALINE PHOSPHATASE / ASPARTATE AMINOTRANSFERASE / BLOOD UREA NITROGEN / CARBON DIOXIDE / CHLORIDE / CHOLESTEROL / CREATINE PHOSPHOKINASE / CREATININE / GLUCOSE / LACTATE DEHYDROGENASE / LIPASE / PHOSPHORUS / POTASSIUM / SODIUM / TOTAL BILIRUBIN / TOTAL PROTEIN / URIC ACID: tissue Plasma
[1] = 0 mg/kg, 72 h, dose level Control, time 3 day
[2] = 0 mg/kg, 120 h, dose level Control, time 5 day
[3] = 1915 mg/kg, 72 h, dose level High, time 3 day
[4] = 1915 mg/kg, 120 h, dose level High, time 5 day

Cc1cc(O)cc(C)c1Cl [CHLOROXYLENOL]
ABSOLUTE BASOPHIL [1]: 0 CELLS/uL
ABSOLUTE EOSINOPHIL [1]: 92.33 CELLS/uL
ABSOLUTE LYMPHOCYTE [1]: 12247.5 CELLS/uL
ABSOLUTE MONOCYTE [1]: 389.67 CELLS/uL
ABSOLUTE SEGMENTED NEUTROPHIL [1]: 1320.5 CELLS/uL
BASOPHIL [1]: 0%
EOSINOPHIL [1]: 0.67%
ERYTHROCYTE COUNT [1]: 5.45 x10E6/uL
HEMATOCRIT [1]: 34.85%
HEMOGLOBIN [1]: 12.97 G/DL
LEUKOCYTE COUNT [1]: 14.05 x10E3/uL
LYMPHOCYTE [1]: 87.33%
MEAN CORPUSCULAR HEMOGLOBIN [1]: 23.78 pg
MEAN CORPUSCULAR HEMOGLOBIN CONCENTRATION [1]: 37.22 G/DL
MEAN CORPUSCULAR VOLUME [1]: 63.93 fL
MONOCYTE [1]: 2.67%
NEUTROPHIL [1]: 9.33%
NUCLEATED RED BLOOD CELLS [1]: 0 /100WBC
PLATELET COUNT [1]: 1174 x10E3/uL
ALANINE AMINOTRANSFERASE [1]: 48.83 u/L
ALBUMIN [1]: 4.23 G/DL
ALKALINE PHOSPHATASE [1]: 351.5 u/L
ASPARTATE AMINOTRANSFERASE [1]: 90 u/L
BLOOD UREA NITROGEN [1]: 15.33 mg/dL
CARBON DIOXIDE [1]: 23 mmol/L
CHLORIDE [1]: 103.5 MEQ/L
CHOLESTEROL [1]: 70.5 mg/dL
CREATINE PHOSPHOKINASE [1]: 651.83 u/L
CREATININE [1]: 0.22 mg/dL
GLUCOSE [1]: 180.67 mg/dL
LACTATE DEHYDROGENASE [1]: 165 u/L
LIPASE [1]: 9.33 u/L
PHOSPHORUS [1]: 12.03 mg/dL
POTASSIUM [1]: 6.17 MEQ/L
SODIUM [1]: 142.62 MEQ/L
TOTAL BILIRUBIN [1]: 0.2 mg/dL
TOTAL PROTEIN [1]: 5.73 G/DL
URIC ACID [1]: 1.77 mg/dL
ABSOLUTE BASOPHIL [2]: 0 CELLS/uL
ABSOLUTE EOSINOPHIL [2]: 0 CELLS/uL
ABSOLUTE LYMPHOCYTE [2]: 12736.67 CELLS/uL
ABSOLUTE MONOCYTE [2]: 253.5 CELLS/uL
ABSOLUTE SEGMENTED NEUTROPHIL [2]: 1193.17 CELLS/uL
BASOPHIL [2]: 0%
EOSINOPHIL [2]: 0%
ERYTHROCYTE COUNT [2]: 5.72 x10E6/uL
HEMATOCRIT [2]: 36.05%
HEMOGLOBIN [2]: 13.62 G/DL
LEUKOCYTE COUNT [2]: 14.18 x10E3/uL
LYMPHOCYTE [2]: 89.33%
MEAN CORPUSCULAR HEMOGLOBIN [2]: 23.83 pg
MEAN CORPUSCULAR HEMOGLOBIN CONCENTRATION [2]: 37.8 G/DL
MEAN CORPUSCULAR VOLUME [2]: 63.05 fL
MONOCYTE [2]: 1.83%
NEUTROPHIL [2]: 8.83%
NUCLEATED RED BLOOD CELLS [2]: 0 /100WBC
PLATELET COUNT [2]: 1322.17 x10E3/uL
ALANINE AMINOTRANSFERASE [2]: 48.83 u/L
ALBUMIN [2]: 4.27 G/DL
ALKALINE PHOSPHATASE [2]: 295.17 u/L
ASPARTATE AMINOTRANSFERASE [2]: 75.83 u/L
BLOOD UREA NITROGEN [2]: 15.5 mg/dL
CARBON DIOXIDE [2]: 30.5 mmol/L
CHLORIDE [2]: 102.33 MEQ/L
CHOLESTEROL [2]: 76.17 mg/dL
CREATINE PHOSPHOKINASE [2]: 205.5 u/L
CREATININE [2]: 0.2 mg/dL
GLUCOSE [2]: 149.67 mg/dL
LACTATE DEHYDROGENASE [2]: 124.5 u/L
LIPASE [2]: 10 u/L
PHOSPHORUS [2]: 10.93 mg/dL
POTASSIUM [2]: 6.59 MEQ/L
SODIUM [2]: 143.1 MEQ/L
TOTAL BILIRUBIN [2]: 0.2 mg/dL
TOTAL PROTEIN [2]: 6.05 G/DL
URIC ACID [2]: 1.45 mg/dL
ABSOLUTE BASOPHIL [3]: 0 CELLS/uL
ABSOLUTE EOSINOPHIL [3]: 0 CELLS/uL
ABSOLUTE LYMPHOCYTE [3]: 13518.33 CELLS/uL
ABSOLUTE MONOCYTE [3]: 372.33 CELLS/uL
ABSOLUTE SEGMENTED NEUTROPHIL [3]: 2242.67 CELLS/uL
BASOPHIL [3]: 0%
EOSINOPHIL [3]: 0%
ERYTHROCYTE COUNT [3]: 5.43 x10E6/uL
HEMATOCRIT [3]: 33.13%
HEMOGLOBIN [3]: 12.03 G/DL
LEUKOCYTE COUNT [3]: 16.13 x10E3/uL
LYMPHOCYTE [3]: 84.33%
MEAN CORPUSCULAR HEMOGLOBIN [3]: 22.17 pg
MEAN CORPUSCULAR HEMOGLOBIN CONCENTRATION [3]: 36.33 G/DL
MEAN CORPUSCULAR VOLUME [3]: 61.07 fL
MONOCYTE [3]: 2.33%
NEUTROPHIL [3]: 13.33%
NUCLEATED RED BLOOD CELLS [3]: 0 /100WBC
PLATELET COUNT [3]: 1126.33 x10E3/uL
ALANINE AMINOTRANSFERASE [3]: 50.33 u/L
ALBUMIN [3]: 3.67 G/DL
ALKALINE PHOSPHATASE [3]: 250.33 u/L
ASPARTATE AMINOTRANSFERASE [3]: 81.67 u/L
BLOOD UREA NITROGEN [3]: 18 mg/dL
CARBON DIOXIDE [3]: 24.33 mmol/L
CHLORIDE [3]: 104.33 MEQ/L
CHOLESTEROL [3]: 76.67 mg/dL
CREATINE PHOSPHOKINASE [3]: 276 u/L
CREATININE [3]: 0.18 mg/dL
GLUCOSE [3]: 175 mg/dL
LACTATE DEHYDROGENASE [3]: 84.67 u/L
LIPASE [3]: 8.67 u/L
PHOSPHORUS [3]: 11.43 mg/dL
POTASSIUM [3]: 6.05 MEQ/L
SODIUM [3]: 145.23 MEQ/L
TOTAL BILIRUBIN [3]: 0.13 mg/dL
TOTAL PROTEIN [3]: 5.67 G/DL
URIC ACID [3]: 2.13 mg/dL
ABSOLUTE BASOPHIL [4]: 0 CELLS/uL
ABSOLUTE EOSINOPHIL [4]: 164.67 CELLS/uL
ABSOLUTE LYMPHOCYTE [4]: 16889.67 CELLS/uL
ABSOLUTE MONOCYTE [4]: 1259.67 CELLS/uL
ABSOLUTE SEGMENTED NEUTROPHIL [4]: 6552.67 CELLS/uL
BASOPHIL [4]: 0%
EOSINOPHIL [4]: 0.67%
ERYTHROCYTE COUNT [4]: 5.49 x10E6/uL
HEMATOCRIT [4]: 33.1%
HEMOGLOBIN [4]: 12.6 G/DL
LEUKOCYTE COUNT [4]: 24.87 x10E3/uL
LYMPHOCYTE [4]: 68%
MEAN CORPUSCULAR HEMOGLOBIN [4]: 23.07 pg
MEAN CORPUSCULAR HEMOGLOBIN CONCENTRATION [4]: 38.1 G/DL
MEAN CORPUSCULAR VOLUME [4]: 60.43 fL
MONOCYTE [4]: 5%
NEUTROPHIL [4]: 26.33%
NUCLEATED RED BLOOD CELLS [4]: 0 /100WBC
PLATELET COUNT [4]: 1493 x10E3/uL
ALANINE AMINOTRANSFERASE [4]: 55.67 u/L
ALBUMIN [4]: 3.17 G/DL
ALKALINE PHOSPHATASE [4]: 330 u/L
ASPARTATE AMINOTRANSFERASE [4]: 87.67 u/L
BLOOD UREA NITROGEN [4]: 18.33 mg/dL
CARBON DIOXIDE [4]: 32 mmol/L
CHLORIDE [4]: 103.67 MEQ/L
CHOLESTEROL [4]: 77 mg/dL
CREATINE PHOSPHOKINASE [4]: 151 u/L
CREATININE [4]: 0.22 mg/dL
GLUCOSE [4]: 164 mg/dL
LACTATE DEHYDROGENASE [4]: 64 u/L
LIPASE [4]: 8 u/L
PHOSPHORUS [4]: 11.27 mg/dL
POTASSIUM [4]: 6.34 MEQ/L
SODIUM [4]: 145.63 MEQ/L
TOTAL BILIRUBIN [4]: 0.13 mg/dL
TOTAL PROTEIN [4]: 5.33 G/DL
URIC ACID [4]: 1.83 mg/dL
